How the values were obtained:
CTX-M-14 = CTX-M-14 (Escherichia coli, UniProt Q9L5C7); experiment: Ki app of β-lactamase inhibition, purified enzyme; assay type: biochemical; details: 10-minute preincubation; nitrocefin substrate
Description: (§1) The majority of purified β-lactamase enzymes used in the study were either expressed and purified internally ([35]) or obtained from Emerald Biostructures (Bainbridge Island, WA, USA). L1 enzyme was purified as described in reference ([36]).
(§2) Enzymes were mixed with BLIs at concentrations varying from 160 to 0.0027 µM in 50-mM Na-phosphate pH7.0, 0.1-mg/mL bovide serum albumin (BSA) (buffer A; 20-µM ZnCl2 was also added for all metalloenzymes) and incubated for 10 minutes at 37°C. Nitrocefin (50 µM) (10 µM for SHV-12) or 100 µM of imipenem (prewarmed at 37°C for 10 minutes) was added, and substrate cleavage profiles were recorded at 37°C at 490 nm every 10 seconds for 10 minutes or at 294 nm every 30 seconds for 1 hour for nitrocefin and imipenem, respectively. […] Ki app values (Ki for metalloenzymes) were calculated by the method of Waley ([37]).

CTX-M-15 = CTX-M-15 (Escherichia coli, UniProt Q9EXV5); experiment: Ki app of β-lactamase inhibition, purified enzyme; assay type: biochemical; details: 10-minute preincubation; nitrocefin substrate
Description: as §1, §2

OXA-23 = OXA-23 (Acinetobacter baumannii, UniProt Q9L4P2); experiment: Ki app of β-lactamase inhibition, purified enzyme; assay type: biochemical; details: 10-minute preincubation; nitrocefin substrate
Description: as §1, §2

PDC1 = PDC1 (Pseudomonas aeruginosa, UniProt P24735); experiment: Ki app of β-lactamase inhibition, purified enzyme; assay type: biochemical; details: 10-minute preincubation; nitrocefin substrate
Description: as §1, §2

P99 = P99 (Enterobacter cloacae, UniProt P05364); experiment: Ki app of β-lactamase inhibition, purified enzyme; assay type: biochemical; details: 10-minute preincubation; nitrocefin substrate; read-out: Ki app
Description: as §1, §2

OXA-48 = OXA-48 (Klebsiella pneumoniae, UniProt Q6XEC0); experiment: Ki app of β-lactamase inhibition, purified enzyme; assay type: biochemical, Enterobacterales; details: 10-minute preincubation; nitrocefin substrate
Description: as §1, §2

[1] = tested on: isogenic efflux and porin mutants of K. pneumoniae and their NDM-1-producing derivatives; experiment: MIC against isogenic efflux and porin mutants (Table 9); assay type: cell-based; details: for BLI MIC: BLI alone
L1 = biological target: T1, L1 (Stenotrophomonas maltophilia, UniProt P52700); experiment: Ki of metallo-β-lactamase inhibition, purified enzyme; assay type: biochemical; details: 10-minute preincubation; nitrocefin substrate
T1 construct: made in house
Description: as §1, §2

VIM-1 = VIM-1 (Pseudomonas aeruginosa, UniProt A0A0F7KYQ8); experiment: as above; assay type: biochemical; details: 10-minute preincubation, nitrocefin substrate
Description: as §1, §2

VIM-1 (lysate of KP1015) = biological target: T2, VIM-1 (lysate of KP1015) (Pseudomonas aeruginosa, UniProt A0A0F7KYQ8); experiment: IC50 of β-lactamase inhibition (imipenem cleavage) in cell lysates; assay type: biochemical, K. pneumoniae; details: KP1015, VIM-1; imipenem cleavage; read-out: IC50 of β-lactamase inhibition in cell lysates
T2 construct: endogenous in cells; host or cells: K. pneumoniae KP1015

[2] = KPM1026a, Wild type, ATCC 43816, β-lactamase None, BLI 0 µg/mL
[3] = KPM1026a, Wild type, ATCC 43816, β-lactamase None, BLI 4 µg/mL
[4] = KPM1026a, Wild type, ATCC 43816, β-lactamase None, BLI 8 µg/mL
[5] = KPM1027, ramR*, β-lactamase None, BLI 0 µg/mL
[6] = KPM1027, ramR*, β-lactamase None, BLI 4 µg/mL
[7] = KPM1027, ramR*, β-lactamase None, BLI 8 µg/mL
[8] = KPM1281, Wild type, ATCC 43816, NDM-1, BLI 0 µg/mL
[9] = KPM1281, Wild type, ATCC 43816, NDM-1, BLI 4 µg/mL
[10] = KPM1281, Wild type, ATCC 43816, NDM-1, BLI 8 µg/mL
[11] = KPM1282, ramR*, NDM-1, BLI 0 µg/mL
[12] = KPM1282, ramR*, NDM-1, BLI 4 µg/mL
[13] = KPM1282, ramR*, NDM-1, BLI 8 µg/mL
[14] = KPM2013, mpK36_2040 ΔompK35, β-lactamase None, BLI 0 µg/mL
[15] = KPM2013, mpK36_2040 ΔompK35, β-lactamase None, BLI 4 µg/mL
[16] = KPM2013, mpK36_2040 ΔompK35, β-lactamase None, BLI 8 µg/mL
[17] = KPM2040, mpK36_2040*, β-lactamase None, BLI 0 µg/mL
[18] = KPM2040, mpK36_2040*, β-lactamase None, BLI 4 µg/mL
[19] = KPM2040, mpK36_2040*, β-lactamase None, BLI 8 µg/mL
[20] = KPM3820, mpK36_2040*, NDM-1, BLI 0 µg/mL
[21] = KPM3820, mpK36_2040*, NDM-1, BLI 4 µg/mL
[22] = KPM3820, mpK36_2040*, NDM-1, BLI 8 µg/mL
[23] = KPM3825, mpK36_2040 ΔompK35, NDM-1, BLI 0 µg/mL
[24] = KPM3825, mpK36_2040 ΔompK35, NDM-1, BLI 4 µg/mL
[25] = KPM3825, mpK36_2040 ΔompK35, NDM-1, BLI 8 µg/mL

PDC1, sequence (P24735 27-397): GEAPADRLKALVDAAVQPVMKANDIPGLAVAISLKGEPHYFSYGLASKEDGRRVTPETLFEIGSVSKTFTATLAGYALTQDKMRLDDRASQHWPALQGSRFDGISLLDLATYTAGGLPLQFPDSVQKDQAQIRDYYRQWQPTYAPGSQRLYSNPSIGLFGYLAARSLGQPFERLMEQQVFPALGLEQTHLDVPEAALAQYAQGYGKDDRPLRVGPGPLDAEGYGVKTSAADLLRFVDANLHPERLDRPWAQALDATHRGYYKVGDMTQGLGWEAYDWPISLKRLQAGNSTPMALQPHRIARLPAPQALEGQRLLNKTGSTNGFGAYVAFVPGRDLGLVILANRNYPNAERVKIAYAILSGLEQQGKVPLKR
OXA-48, sequence (Q6XEC0 23-265 limits assumed): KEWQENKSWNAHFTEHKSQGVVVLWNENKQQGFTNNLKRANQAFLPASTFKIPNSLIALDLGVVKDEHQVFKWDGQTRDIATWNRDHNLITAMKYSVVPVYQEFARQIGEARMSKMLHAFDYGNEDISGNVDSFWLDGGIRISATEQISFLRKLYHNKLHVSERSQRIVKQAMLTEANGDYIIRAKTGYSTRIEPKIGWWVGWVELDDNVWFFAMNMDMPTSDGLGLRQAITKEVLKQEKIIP
P99, sequence (P05364 21-381): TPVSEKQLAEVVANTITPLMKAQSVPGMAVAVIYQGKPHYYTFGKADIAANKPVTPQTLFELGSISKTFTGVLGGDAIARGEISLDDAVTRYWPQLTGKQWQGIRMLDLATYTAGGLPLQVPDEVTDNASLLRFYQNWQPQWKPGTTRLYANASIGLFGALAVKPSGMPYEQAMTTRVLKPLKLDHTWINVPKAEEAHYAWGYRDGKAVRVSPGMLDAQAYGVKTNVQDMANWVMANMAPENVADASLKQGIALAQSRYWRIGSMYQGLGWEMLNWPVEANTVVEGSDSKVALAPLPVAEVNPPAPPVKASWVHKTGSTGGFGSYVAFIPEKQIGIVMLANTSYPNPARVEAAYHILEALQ
T1 sequence (P52700 34-290): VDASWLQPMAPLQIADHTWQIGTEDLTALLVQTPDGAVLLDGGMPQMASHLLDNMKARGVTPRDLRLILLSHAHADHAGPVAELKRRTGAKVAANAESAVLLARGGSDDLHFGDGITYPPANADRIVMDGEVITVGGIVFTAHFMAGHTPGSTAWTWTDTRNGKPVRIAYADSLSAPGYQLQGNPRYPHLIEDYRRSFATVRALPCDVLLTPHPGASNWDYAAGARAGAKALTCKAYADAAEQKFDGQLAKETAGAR
CTX-M-15, sequence (Q9EXV5 entry or part of it): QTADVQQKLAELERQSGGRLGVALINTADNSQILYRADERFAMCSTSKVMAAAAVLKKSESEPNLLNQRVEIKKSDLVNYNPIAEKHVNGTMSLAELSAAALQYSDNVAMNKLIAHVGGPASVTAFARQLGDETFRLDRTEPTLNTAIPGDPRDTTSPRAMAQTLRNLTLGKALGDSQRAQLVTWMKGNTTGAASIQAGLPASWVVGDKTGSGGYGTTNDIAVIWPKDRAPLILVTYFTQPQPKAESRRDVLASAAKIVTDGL
OXA-23, sequence (Q9L4P2 18-273): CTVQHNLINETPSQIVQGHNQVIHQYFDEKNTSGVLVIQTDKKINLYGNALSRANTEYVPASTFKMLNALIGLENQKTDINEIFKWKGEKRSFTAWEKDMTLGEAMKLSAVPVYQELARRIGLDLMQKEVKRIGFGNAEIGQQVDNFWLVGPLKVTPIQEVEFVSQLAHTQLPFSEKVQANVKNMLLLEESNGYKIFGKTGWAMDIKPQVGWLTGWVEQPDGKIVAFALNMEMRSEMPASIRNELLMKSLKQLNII
CTX-M-14, sequence (Q9L5C7 entry or part of it): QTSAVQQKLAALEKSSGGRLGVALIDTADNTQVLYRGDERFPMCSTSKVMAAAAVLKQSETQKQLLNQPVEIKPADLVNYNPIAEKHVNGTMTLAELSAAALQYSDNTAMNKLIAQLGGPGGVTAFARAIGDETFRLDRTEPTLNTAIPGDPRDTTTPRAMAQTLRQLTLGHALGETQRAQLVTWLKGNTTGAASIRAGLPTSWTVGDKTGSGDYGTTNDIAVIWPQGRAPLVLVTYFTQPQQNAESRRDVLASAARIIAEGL

SMILES: NCCN[C@H]1CC[C@H](CC(=O)N[C@H]2Cc3cccc(C(=O)O)c3OB2O)CC1 [Taniborbactam, taniborbactam]
- Ki (CTX-M-14): 1.2 ± 0.5 nM
- Ki (CTX-M-15): 2.6 ± 0.1 nM
- Ki (OXA-23): > 20000 nM
- Ki (PDC1): 22 nM
- Ki (P99): 2.4 ± 0.5 nM
- Ki (OXA-48): 6.1 ± 0.7 nM
- Cefepime MIC with BLIs [1, 2]: 0.03 µg/mL
- Meropenem MIC with BLIs [1, 2]: 0.03 µg/mL
- Cefepime MIC with BLIs [1, 3]: 0.03 µg/mL
- Meropenem MIC with BLIs [1, 3]: 0.03 µg/mL
- Cefepime MIC with BLIs [1, 4]: 0.03 µg/mL
- Meropenem MIC with BLIs [1, 4]: 0.03 µg/mL
- BLI MIC ([1]; KPM1026a, Wild type, ATCC 43816, β-lactamase None): >64 µg/mL
- Cefepime MIC with BLIs [1, 5]: 0.25 µg/mL
- Meropenem MIC with BLIs [1, 5]: 0.06 µg/mL
- Cefepime MIC with BLIs [1, 6]: 0.25 µg/mL
- Meropenem MIC with BLIs [1, 6]: 0.06 µg/mL
- Cefepime MIC with BLIs [1, 7]: 0.25 µg/mL
- Meropenem MIC with BLIs [1, 7]: 0.06 µg/mL
- BLI MIC ([1]; KPM1027, ramR*, β-lactamase None): >64 µg/mL
- Cefepime MIC with BLIs [1, 8]: 16 µg/mL
- Meropenem MIC with BLIs [1, 8]: 32 µg/mL
- Cefepime MIC with BLIs [1, 9]: 0.25 µg/mL
- Meropenem MIC with BLIs [1, 9]: 0.125 µg/mL
- Cefepime MIC with BLIs [1, 10]: 0.125 µg/mL
- Meropenem MIC with BLIs [1, 10]: 0.06 µg/mL
- BLI MIC ([1]; KPM1281, Wild type, ATCC 43816, NDM-1): >64 µg/mL
- Cefepime MIC with BLIs [1, 11]: 32 µg/mL
- Meropenem MIC with BLIs [1, 11]: 64 µg/mL
- Cefepime MIC with BLIs [1, 12]: 0.5 µg/mL
- Meropenem MIC with BLIs [1, 12]: 0.25 µg/mL
- Cefepime MIC with BLIs [1, 13]: 0.5 µg/mL
- Meropenem MIC with BLIs [1, 13]: 0.125 µg/mL
- BLI MIC ([1]; KPM1282, ramR*, NDM-1): >64 µg/mL
- Cefepime MIC with BLIs [1, 14]: 0.5 µg/mL
- Meropenem MIC with BLIs [1, 14]: 0.25 µg/mL
- Cefepime MIC with BLIs [1, 15]: 0.5 µg/mL
- Meropenem MIC with BLIs [1, 15]: 0.25 µg/mL
- Cefepime MIC with BLIs [1, 16]: 0.5 µg/mL
- Meropenem MIC with BLIs [1, 16]: 0.25 µg/mL
- BLI MIC ([1]; KPM2013, mpK36_2040 ΔompK35, β-lactamase None): >64 µg/mL
- Cefepime MIC with BLIs [1, 17]: 0.125 µg/mL
- Meropenem MIC with BLIs [1, 17]: 0.125 µg/mL
- Cefepime MIC with BLIs [1, 18]: 0.125 µg/mL
- Meropenem MIC with BLIs [1, 18]: 0.125 µg/mL
- Cefepime MIC with BLIs [1, 19]: 0.125 µg/mL
- Meropenem MIC with BLIs [1, 19]: 0.125 µg/mL
- BLI MIC ([1]; KPM2040, mpK36_2040*, β-lactamase None): >64 µg/mL
- Cefepime MIC with BLIs [1, 20]: 128 µg/mL
- Meropenem MIC with BLIs [1, 20]: 128 µg/mL
- Cefepime MIC with BLIs [1, 21]: 4 µg/mL
- Meropenem MIC with BLIs [1, 21]: 8 µg/mL
- Cefepime MIC with BLIs [1, 22]: 2 µg/mL
- Meropenem MIC with BLIs [1, 22]: 4 µg/mL
- BLI MIC ([1]; KPM3820, mpK36_2040*, NDM-1): >64 µg/mL
- Cefepime MIC with BLIs [1, 23]: 256 µg/mL
- Meropenem MIC with BLIs [1, 23]: 256 µg/mL
- Cefepime MIC with BLIs [1, 24]: 8 µg/mL
- Meropenem MIC with BLIs [1, 24]: 32 µg/mL
- Cefepime MIC with BLIs [1, 25]: 4 µg/mL
- Meropenem MIC with BLIs [1, 25]: 16 µg/mL
- BLI MIC ([1]; KPM3825, mpK36_2040 ΔompK35, NDM-1): >64 µg/mL
- Ki (L1): 17000 nM
- Ki (VIM-1): 31 ± 3 nM
- Ki (VIM-1; listed as taniborbactam): ~30 nM
- IC50 (VIM-1 (lysate of KP1015)): 190 ± 10 nM

From article PMC10648875 (Antimicrobial Agents and Chemotherapy, 2023)
